What was measured:
Type in all cases: in vivo
[1] = system: blackgrass (Alopecurus myosuroides); assay: Test B pre-/postemergence; design: key: 0 is no effect; 10 is complete control; settings: for Blackgrass plant response rating: Preemergence
In short: (§1)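 Seeds were planted and sprayed preemergence, while plants at 2 to 18 cm (1- to 4-leaf stage) were sprayed postemergence at the same time, with test chemical in a non-phytotoxic solvent mixture containing surfactant. After twelve to sixteen days in a greenhouse, injury was rated visually against untreated controls on a 0–10 scale.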

[2] = system: wild oat (Avena fatua); assay: Test B pre-/postemergence; design: key: 0 is no effect; 10 is complete control
In short: as §1

[3] = system: bamyardgrass (Echinochloa crus-galli); assay: Test B flood test
In short: (§2)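 Plants were grown to the 2-leaf stage before treatment with test chemical, then held in a greenhouse for twelve to sixteen days. Injury was visually rated against untreated controls on a 0–10 scale, where 0 is no effect and 10 is complete control.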

[4] = system: duck salad (Heteranthera limosa); assay: Test B flood test
In short: as §2

[5] = system: rice (Oryza sativa); assay: Test B flood test; settings: for Rice plant response rating: Rate 125 g/ha, Postemergence section (flood test species)
In short: as §2

[6] = system: smallflower flatsedge (Cyperus difformis); assay: Test B flood test; settings: for S. Flatsedge plant response rating: Rate 125 g/ha, Postemergence section (flood test species)
In short: as §2

[7] = system: common ragweed (Ambrosia elatior); assay: Test C; settings: PREEMERGENCE
[8] = system: fall panicum (Panicum dichotomiflorum); assay: Test C; design: key: 0 was no effect; 100 was complete control; settings: PREEMERGENCE
[9] = system: johnsongrass (Sorghum halepense); assay: Test C; settings: PREEMERGENCE
[10] = system: purple nutsedge (Cyperus rotundus); assay: Test C; design: key: 0 was no effect; 100 was complete control; settings: PREEMERGENCE
[11] = system: surinam grass (Brachiaria decumbens); assay: Test C; settings: PREEMERGENCE
[12] = system: purple nutsedge (Cyperus rotundus); assay: Test E pre-/postemergence/post directed; design: key: 0 is no injury; 100 is complete control
Description: (§3) Seeds, tubers, or plant parts of alexandergrass (Brachiaria plantaginea), annual bluegrass (Poa annua), arrowleaf sida (Sida rhombifolia), barnyardgrass (Echinochloa crus-galli), bermudagrass (Cynodon dactylon), citrus (Citrus sinensis), common chickweed (Stellaria media), common purslane (Portulaca oleracea), common ragweed (Ambrosia elatior), common groundsel (Senecio vulgaris), dallisgrass (Paspalum dilatatum), goosegrass (Eleusine indica), green foxtail (Setaria viridis), guineagrass (Panicum maximum), itchgrass (Rottboellia exaltata), johnson grass (Sorghum halepense), kochia (Kochia scoparia), large crabgrass (Digitaria sanguinalis), leafy spurge (Euphorbia esula), pitted morningglory (Ipomoea lacunosa), purple nutsedge (Cyperus rotundus), quackgrass (Agropyron repens), Russian thistle (Salsola kali), sandbur (Cenchrus echinatus), sourgrass (Trichachne insularis), Spanishneedles (Bidens bipinnata), sugarcane (Saccharum officinarum), surinam grass (Brachiaria decumbens) and tall mallow (Malva sylvestris) were planted into greenhouse pots of flats containing greenhouse planting medium. Plant species were grown grown in separate pots or individual compartments. Preemergence applications were made within one day of planting the seed or plant part. Postemergence applications were applied when the plants were in the two to four leaf stage (three to twenty cm).
(§4) Test chemicals were formulated in a non-phytotoxic solvent mixture which included a surfactant and applied preemergence to the soil surface, postemergence to the plants or as a post directed spray to plants and soil at the base of the target species. Untreated control plants and treated plants were placed in the greenhouse and visually evaluated for injury 13 to 21 days after herbicide application. Plant response ratings, summarized in Table E, are based on a 0 to 100 scale where 0 is no injury and 100 is complete control. A dash (−) response means no test result.

[13] = system: sandbur (Cenchrus echinatus); assay: Test E pre-/postemergence/post directed; design: key: 0 is no injury; 100 is complete control
Description: as §3, §4

[14] = system: common groundsel (Senecio vulgaris); assay: Test E pre-/postemergence/post directed
Description: as §3, §4

[15] = system: pitted morningglory (Ipomoea lacunosa); assay: Test E pre-/postemergence/post directed
Description: as §3, §4

[16] = Rate 250 g/ha, Postemergence (so in the source)
[17] = Rate 62 g/ha, Postemergence (flood test)
[18] = Rate 125 g/ha, Postemergence, flood test
[19] = Rate 250 g/ha, Postemergence (flood test species)

Question: Which “Plant response rating, Blackgrass” value ([1]; Rate 62 g/ha, Postemergence) does the source give for `Cc1cnc(-n2ccc(C(F)(F)F)n2)nc1Cc1cccc(OC(F)(F)F)c1` [Compound 42] here?
Answer: 6

Question: What about the “Blackgrass plant response rating” value ([1]; Rate 62 g/ha) of the same molecule?
Answer: 6

Question: And the “Plant response rating, Blackgrass” value ([1]; Rate 125 g/ha, Postemergence)?
Answer: 7

Question: And the “Blackgrass plant response rating” value ([1]; Rate 125 g/ha)?
Answer: 10

Question: And the “Plant response rating, Blackgrass” value ([1]; Rate 250 g/ha, Postemergence)?
Answer: 7

Question: What about the “Plant response rating, Blackgrass” value [1, 16] of the same molecule?
Answer: 10

Question: What about the “Wild oats plant response rating” value ([2]; Rate 62 g/ha, Postemergence) of the same molecule?
Answer: 6

Question: What about the “Wild oats plant response rating” value ([2]; Rate 62 g/ha, Preemergence) of the same molecule?
Answer: 4

Question: And the “Wild oats plant response rating” value ([2]; Rate 125 g/ha, Postemergence)?
Answer: 6

Question: What about the “Plant response rating, Wild oats” value ([2]; Rate 125 g/ha, Preemergence) of the same molecule?
Answer: 8

Question: And the “Plant response rating, Wild oats” value ([2]; Rate 250 g/ha, Postemergence)?
Answer: 6

Question: What about the “Plant response rating, Wild oats” value [2, 16] of the same molecule?
Answer: 9

Question: And the “Plant response rating, Barnyardgrass” value [3, 17]?
Answer: 4

Question: What about the “Plant response rating, Barnyardgrass” value [3, 18] of the same molecule?
Answer: 4

Question: What about the “Plant response rating, Barnyardgrass” value [3, 19] of the same molecule?
Answer: 5

Question: What about the “Plant response rating, Ducksalad” value [4, 17] of the same molecule?
Answer: 1

Question: What about the “Plant response rating, Ducksalad” value [4, 18] of the same molecule?
Answer: 8

Question: And the “Plant response rating, Ducksalad” value [4, 19]?
Answer: 8

Question: What about the “Plant response rating, Rice” value [5, 17] of the same molecule?
Answer: 4

Question: What about the “Rice plant response rating” value [5] of the same molecule?
Answer: 6

Question: What about the “Plant response rating, Rice” value [5, 19] of the same molecule?
Answer: 6

Question: And the “Plant response rating, S. Flatsedge” value [6, 17]?
Answer: 9

Question: And the “S. Flatsedge plant response rating” value [6]?
Answer: 9

Question: And the “Plant response rating, S. Flatsedge” value [6, 19]?
Answer: 9

Question: And the “Plant response rating, Common ragweed” value ([7]; Rate 35 g/ha)?
Answer: 20

Question: What about the “Plant response rating, Common ragweed” value ([7]; Rate 70 g/ha) of the same molecule?
Answer: 85

Question: What about the “Plant response rating, Common ragweed” value ([7]; Rate 140 g/ha) of the same molecule?
Answer: 85

Question: What about the “Plant response rating, Fall panicum” value ([8]; Rate 35 g/ha) of the same molecule?
Answer: 50

Question: What about the “Plant response rating, Fall panicum” value ([8]; Rate 70 g/ha) of the same molecule?
Answer: 85

Question: And the “Plant response rating, Fall panicum” value ([8]; Rate 140 g/ha)?
Answer: 100

Question: And the “Plant response rating, Johnsongrass” value ([9]; Rate 35 g/ha)?
Answer: 70

Question: And the “Plant response rating, Johnsongrass” value ([9]; Rate 70 g/ha)?
Answer: 70

Question: What about the “Plant response rating, Johnsongrass” value ([9]; Rate 140 g/ha) of the same molecule?
Answer: 85

Question: What about the “Plant response rating, Purple nutsedge” value ([10]; Rate 35 g/ha) of the same molecule?
Answer: 0

Question: What about the “Plant response rating, Purple nutsedge” value ([10]; Rate 70 g/ha) of the same molecule?
Answer: 0

Question: And the “Plant response rating, Purple nutsedge” value ([10]; Rate 140 g/ha)?
Answer: 0

Question: What about the “Plant response rating, Surinam grass” value ([11]; Rate 35 g/ha) of the same molecule?
Answer: 50

Question: What about the “Plant response rating, Surinam grass” value ([11]; Rate 70 g/ha) of the same molecule?
Answer: 55

Question: What about the “Plant response rating, Surinam grass” value ([11]; Rate 140 g/ha) of the same molecule?
Answer: 70

Question: What about the “Plant response rating, Purple nutsedge” value ([12]; PREEMERGENCE, Rate 32 g/ha) of the same molecule?
Answer: 20

Question: What about the “Plant response rating, Purple nutsedge” value ([12]; PREEMERGENCE, Rate 64 g/ha) of the same molecule?
Answer: 30

Question: What about the “Plant response rating, Purple nutsedge” value ([12]; PREEMERGENCE, Rate 125 g/ha) of the same molecule?
Answer: 30

Question: What about the “Plant response rating, Purple nutsedge” value ([12]; PREEMERGENCE, Rate 250 g/ha) of the same molecule?
Answer: 30

Question: And the “Plant response rating, Sandbur” value ([13]; PREEMERGENCE, Rate 32 g/ha)?
Answer: 0

Question: What about the “Plant response rating, Com. groundsel” value ([14]; PREEMERGENCE, Rate 32 g/ha) of the same molecule?
Answer: 90

Question: And the “Plant response rating, P. morninglory” value ([15]; PREEMERGENCE, Rate 64 g/ha)?
Answer: 30

Question: And the “Plant response rating, P. morninglory” value ([15]; PREEMERGENCE, Rate 125 g/ha)?
Answer: 65

Question: And the “Plant response rating, P. morninglory” value ([15]; PREEMERGENCE, Rate 250 g/ha)?
Answer: 75

Question: With `Cc1cnc(-n2cnc(C(F)(F)F)c2)nc1Cc1cccc(C(F)(F)F)c1` [Compound 44] as the molecule, how does the “Plant response rating, Blackgrass” value ([1]; Rate 62 g/ha, Postemergence) read?
Answer: 4

Question: And the “Blackgrass plant response rating” value ([1]; Rate 62 g/ha)?
Answer: 5

Question: And the “Plant response rating, Blackgrass” value ([1]; Rate 125 g/ha, Postemergence)?
Answer: 5

Question: And the “Blackgrass plant response rating” value ([1]; Rate 125 g/ha)?
Answer: 6

Question: What about the “Plant response rating, Blackgrass” value ([1]; Rate 250 g/ha, Postemergence) of the same molecule?
Answer: 7

Question: And the “Plant response rating, Blackgrass” value [1, 16]?
Answer: 9

Question: What about the “Wild oats plant response rating” value ([2]; Rate 62 g/ha, Postemergence) of the same molecule?
Answer: 4

Question: What about the “Wild oats plant response rating” value ([2]; Rate 62 g/ha, Preemergence) of the same molecule?
Answer: 6

Question: What about the “Wild oats plant response rating” value ([2]; Rate 125 g/ha, Postemergence) of the same molecule?
Answer: 4

Question: And the “Plant response rating, Wild oats” value ([2]; Rate 125 g/ha, Preemergence)?
Answer: 7

Question: And the “Plant response rating, Wild oats” value ([2]; Rate 250 g/ha, Postemergence)?
Answer: 5

Question: What about the “Plant response rating, Wild oats” value [2, 16] of the same molecule?
Answer: 9

Question: And the “Plant response rating, Barnyardgrass” value [3, 17]?
Answer: 3

Question: And the “Plant response rating, Barnyardgrass” value [3, 18]?
Answer: 4

Question: And the “Plant response rating, Barnyardgrass” value [3, 19]?
Answer: 4

Question: What about the “Plant response rating, Ducksalad” value [4, 17] of the same molecule?
Answer: 4

Question: And the “Plant response rating, Ducksalad” value [4, 18]?
Answer: 7

Question: What about the “Plant response rating, Ducksalad” value [4, 19] of the same molecule?
Answer: 9

Question: What about the “Plant response rating, Rice” value [5, 17] of the same molecule?
Answer: 5

Question: What about the “Rice plant response rating” value [5] of the same molecule?
Answer: 6

Question: What about the “Plant response rating, Rice” value [5, 19] of the same molecule?
Answer: 7

Question: What about the “Plant response rating, S. Flatsedge” value [6, 17] of the same molecule?
Answer: 9

Question: And the “S. Flatsedge plant response rating” value [6]?
Answer: 9

Question: What about the “Plant response rating, S. Flatsedge” value [6, 19] of the same molecule?
Answer: 9

Question: What about the “Plant response rating, Purple nutsedge” value ([12]; POSTEMERGENCE, Rate 125 g/ha) of the same molecule?
Answer: 0

Question: What about the “Plant response rating, Purple nutsedge” value ([12]; POSTEMERGENCE, Rate 250 g/ha) of the same molecule?
Answer: 0

Question: What about the “Plant response rating, Purple nutsedge” value ([12]; PREEMERGENCE, Rate 32 g/ha) of the same molecule?
Answer: 0

Question: What about the “Plant response rating, Purple nutsedge” value ([12]; PREEMERGENCE, Rate 64 g/ha) of the same molecule?
Answer: 0

Question: And the “Plant response rating, Purple nutsedge” value ([12]; PREEMERGENCE, Rate 125 g/ha)?
Answer: 0

Question: What about the “Plant response rating, Purple nutsedge” value ([12]; PREEMERGENCE, Rate 250 g/ha) of the same molecule?
Answer: 0

Question: What about the “Plant response rating, Sandbur” value ([13]; POSTEMERGENCE, Rate 125 g/ha) of the same molecule?
Answer: 0

Question: And the “Plant response rating, Sandbur” value ([13]; POSTEMERGENCE, Rate 250 g/ha)?
Answer: 0

Question: And the “Plant response rating, Sandbur” value ([13]; PREEMERGENCE, Rate 32 g/ha)?
Answer: 0

Question: And the “Plant response rating, Com. groundsel” value ([14]; POSTEMERGENCE, Rate 125 g/ha)?
Answer: 10

Question: What about the “Plant response rating, Com. groundsel” value ([14]; POSTEMERGENCE, Rate 250 g/ha) of the same molecule?
Answer: 10

Question: And the “Plant response rating, Com. groundsel” value ([14]; PREEMERGENCE, Rate 32 g/ha)?
Answer: 98

Question: And the “Plant response rating, P. morninglory” value ([15]; POSTEMERGENCE, Rate 125 g/ha)?
Answer: 30

Question: What about the “Plant response rating, P. morninglory” value ([15]; POSTEMERGENCE, Rate 250 g/ha) of the same molecule?
Answer: 40

Question: What about the “Plant response rating, P. morninglory” value ([15]; PREEMERGENCE, Rate 32 g/ha) of the same molecule?
Answer: 20

Question: What about the “Plant response rating, P. morninglory” value ([15]; PREEMERGENCE, Rate 64 g/ha) of the same molecule?
Answer: 30

Question: And the “Plant response rating, P. morninglory” value ([15]; PREEMERGENCE, Rate 125 g/ha)?
Answer: 50

Question: What about the “Plant response rating, P. morninglory” value ([15]; PREEMERGENCE, Rate 250 g/ha) of the same molecule?
Answer: 50
